As a reminder, the IC50 is the point on the concentration scale where inhibition reaches its midpoint.

This experiment concerns the target human Cav2.2 (Homo sapiens, UniProt Q00975). The experiment is described as follows: Assessment of calcium channel activity using FLIPR (Ca2+ influx in IMR32 cells). The format is cell-based. The note with it: IMR32 cells endogenously expressing human Cav2.2; 60 minute pre-incubation; 2 μM nifedipine; depolarized with 80 mM KCl, 5 mM CaCl2. Here is the method:
(i) In Vitro Methods—Assessment of Calcium Channel Activity Using FLIPR:
The IMR32 cells were maintained in MEM media containing 10% (v/v) FBS, 1% (v/v) antibiotic/antimitotic, 1% (v/v) sodium pyruvate and 1% (v/v) MEM NEAA. Following dissociation in 0.05% (v/v) trypsin/EDTA, cells were seeded into black 1×96-well plates (Corning Cellbind) at a density of 1-1.2×10^5 cells/well and incubated in the maintenance media above for 48 hours at 37° C. […] After dye loading and a subsequent 60 minute pre-incubation with compounds (full log dilutions from 10 μM to 0.1 nM) in the presence of 1.3 mM CaCl2 and 2 μM nifedipine to block endogenous L-type channels, the external Ca^2+ concentration was increased to 5 mM CaCl2 and the cells concomitantly depolarized with 80 mM KCl to assay channel activity. To determine the IC50 values, the percent inhibition of the compound at each concentration was determined relative to the activity in the absence of inhibitor, and data was fitted using non-linear regression sigmoidal dose response curve analysis with GraphPad Prism®.

Chain of human Cav2.2 (Q00975 whole entry): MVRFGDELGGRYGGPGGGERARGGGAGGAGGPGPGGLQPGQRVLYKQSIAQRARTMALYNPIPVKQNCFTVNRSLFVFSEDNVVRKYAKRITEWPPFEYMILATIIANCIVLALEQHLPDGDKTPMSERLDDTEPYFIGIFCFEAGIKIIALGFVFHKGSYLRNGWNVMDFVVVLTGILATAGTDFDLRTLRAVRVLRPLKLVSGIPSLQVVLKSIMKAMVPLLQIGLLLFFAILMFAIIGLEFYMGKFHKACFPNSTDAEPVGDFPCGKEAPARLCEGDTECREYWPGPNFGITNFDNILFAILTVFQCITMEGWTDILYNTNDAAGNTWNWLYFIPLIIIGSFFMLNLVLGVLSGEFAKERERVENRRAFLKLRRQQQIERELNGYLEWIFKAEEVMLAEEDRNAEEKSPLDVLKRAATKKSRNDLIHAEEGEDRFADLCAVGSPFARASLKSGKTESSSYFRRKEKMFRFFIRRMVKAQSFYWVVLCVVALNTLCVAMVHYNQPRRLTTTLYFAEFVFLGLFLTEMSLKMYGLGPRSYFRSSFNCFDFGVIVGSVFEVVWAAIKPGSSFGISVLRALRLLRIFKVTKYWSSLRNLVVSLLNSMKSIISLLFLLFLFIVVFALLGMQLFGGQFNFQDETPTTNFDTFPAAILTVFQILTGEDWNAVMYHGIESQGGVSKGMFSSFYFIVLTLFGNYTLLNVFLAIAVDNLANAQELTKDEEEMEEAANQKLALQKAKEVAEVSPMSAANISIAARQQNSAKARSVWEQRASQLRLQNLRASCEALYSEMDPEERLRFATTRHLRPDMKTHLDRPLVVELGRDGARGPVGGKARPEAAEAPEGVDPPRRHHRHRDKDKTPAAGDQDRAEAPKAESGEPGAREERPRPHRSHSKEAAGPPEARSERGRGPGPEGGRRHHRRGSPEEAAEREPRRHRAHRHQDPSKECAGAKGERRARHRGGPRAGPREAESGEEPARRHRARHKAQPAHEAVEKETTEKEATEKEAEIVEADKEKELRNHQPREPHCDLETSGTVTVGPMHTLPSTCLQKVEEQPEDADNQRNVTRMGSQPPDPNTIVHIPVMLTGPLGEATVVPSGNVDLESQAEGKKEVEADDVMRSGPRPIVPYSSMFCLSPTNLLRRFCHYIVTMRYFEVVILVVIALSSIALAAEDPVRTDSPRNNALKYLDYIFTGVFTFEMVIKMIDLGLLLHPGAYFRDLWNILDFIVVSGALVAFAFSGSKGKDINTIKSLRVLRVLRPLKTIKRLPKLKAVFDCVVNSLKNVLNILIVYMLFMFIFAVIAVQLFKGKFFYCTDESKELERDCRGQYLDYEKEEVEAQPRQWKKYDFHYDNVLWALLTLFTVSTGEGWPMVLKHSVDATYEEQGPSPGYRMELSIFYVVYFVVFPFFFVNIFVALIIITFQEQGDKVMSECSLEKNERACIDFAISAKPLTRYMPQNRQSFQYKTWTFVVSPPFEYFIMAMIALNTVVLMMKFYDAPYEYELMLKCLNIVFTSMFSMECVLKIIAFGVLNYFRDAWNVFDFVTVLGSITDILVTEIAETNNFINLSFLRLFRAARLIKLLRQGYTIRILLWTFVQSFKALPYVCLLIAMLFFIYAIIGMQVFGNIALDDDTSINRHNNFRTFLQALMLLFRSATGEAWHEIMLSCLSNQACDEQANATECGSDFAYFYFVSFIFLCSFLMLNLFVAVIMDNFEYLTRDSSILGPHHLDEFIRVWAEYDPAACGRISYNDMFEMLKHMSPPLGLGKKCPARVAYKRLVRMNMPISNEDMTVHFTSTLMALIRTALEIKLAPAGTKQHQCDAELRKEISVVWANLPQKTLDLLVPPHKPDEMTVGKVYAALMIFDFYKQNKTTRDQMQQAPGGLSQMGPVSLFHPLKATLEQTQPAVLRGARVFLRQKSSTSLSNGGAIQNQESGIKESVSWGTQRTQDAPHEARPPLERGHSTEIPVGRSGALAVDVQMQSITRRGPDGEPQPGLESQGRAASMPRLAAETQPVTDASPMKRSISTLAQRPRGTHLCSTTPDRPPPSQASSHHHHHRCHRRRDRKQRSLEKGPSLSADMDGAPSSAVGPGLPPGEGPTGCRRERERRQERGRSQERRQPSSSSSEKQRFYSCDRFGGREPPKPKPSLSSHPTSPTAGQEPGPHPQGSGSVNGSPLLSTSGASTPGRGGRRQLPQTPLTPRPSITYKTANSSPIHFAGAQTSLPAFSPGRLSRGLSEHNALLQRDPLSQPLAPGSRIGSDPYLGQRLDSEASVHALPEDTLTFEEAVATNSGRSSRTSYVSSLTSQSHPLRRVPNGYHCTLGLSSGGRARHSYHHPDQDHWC
Chain of human Cav2.2 (P54289 25-951 partner limits assumed): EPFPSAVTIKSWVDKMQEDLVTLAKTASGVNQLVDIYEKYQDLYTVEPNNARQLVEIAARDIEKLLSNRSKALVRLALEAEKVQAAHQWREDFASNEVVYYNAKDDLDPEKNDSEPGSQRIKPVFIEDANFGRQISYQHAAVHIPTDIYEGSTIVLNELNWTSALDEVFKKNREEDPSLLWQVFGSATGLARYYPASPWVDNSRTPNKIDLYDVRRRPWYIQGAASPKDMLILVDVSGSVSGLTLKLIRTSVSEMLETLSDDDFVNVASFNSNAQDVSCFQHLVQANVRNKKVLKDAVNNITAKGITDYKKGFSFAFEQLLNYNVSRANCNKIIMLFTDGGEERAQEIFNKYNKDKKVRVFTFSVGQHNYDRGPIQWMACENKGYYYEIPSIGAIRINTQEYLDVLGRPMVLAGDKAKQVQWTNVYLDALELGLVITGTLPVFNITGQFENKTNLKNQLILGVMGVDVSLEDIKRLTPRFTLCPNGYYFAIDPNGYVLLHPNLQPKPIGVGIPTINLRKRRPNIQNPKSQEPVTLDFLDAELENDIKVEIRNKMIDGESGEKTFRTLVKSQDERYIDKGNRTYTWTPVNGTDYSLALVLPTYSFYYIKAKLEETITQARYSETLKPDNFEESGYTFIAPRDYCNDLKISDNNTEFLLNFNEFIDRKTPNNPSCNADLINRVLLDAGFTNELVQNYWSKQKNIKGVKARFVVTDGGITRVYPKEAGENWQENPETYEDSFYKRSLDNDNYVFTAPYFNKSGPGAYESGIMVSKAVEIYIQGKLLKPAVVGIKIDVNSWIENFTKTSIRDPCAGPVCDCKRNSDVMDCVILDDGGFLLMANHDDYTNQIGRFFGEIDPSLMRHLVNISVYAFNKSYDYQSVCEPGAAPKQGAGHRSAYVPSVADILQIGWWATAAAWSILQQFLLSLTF
Chain of human Cav2.2 (P54289 952-1103 partner limits assumed): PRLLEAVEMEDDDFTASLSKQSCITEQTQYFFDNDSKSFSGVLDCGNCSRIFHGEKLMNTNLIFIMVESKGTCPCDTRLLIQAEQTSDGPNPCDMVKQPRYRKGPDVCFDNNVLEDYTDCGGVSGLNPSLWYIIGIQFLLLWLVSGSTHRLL
Chain of human Cav2.2 (P54284 whole entry partner): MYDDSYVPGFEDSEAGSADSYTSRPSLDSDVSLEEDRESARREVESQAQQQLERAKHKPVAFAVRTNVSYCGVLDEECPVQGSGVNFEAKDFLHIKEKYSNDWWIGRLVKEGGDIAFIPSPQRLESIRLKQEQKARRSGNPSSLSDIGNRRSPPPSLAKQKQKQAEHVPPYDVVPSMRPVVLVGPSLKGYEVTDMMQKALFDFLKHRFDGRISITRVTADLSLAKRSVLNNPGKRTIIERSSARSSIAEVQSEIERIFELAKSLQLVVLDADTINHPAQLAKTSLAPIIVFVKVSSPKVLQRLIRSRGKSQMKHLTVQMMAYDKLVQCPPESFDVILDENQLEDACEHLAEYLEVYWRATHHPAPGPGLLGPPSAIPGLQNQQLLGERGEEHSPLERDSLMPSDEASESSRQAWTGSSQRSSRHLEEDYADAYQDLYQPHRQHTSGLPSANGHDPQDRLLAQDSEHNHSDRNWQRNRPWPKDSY

Consider `O=C(CN1CCC(c2ccccc2)(c2ccccc2)C1=O)N1CCC(NCC(c2ccccc2)c2ccccc2)CC1` [Example 52, 1-(2-{4-[(2,2-diphenylethyl)amino]piperidin-1-yl}-2-oxoethyl)-3,3-diphenylpyrrolidin-2-one], for which the concentration for half-maximal inhibition (IC50) came to 1540 nM.

As for `O=C(CN1CCCC(c2ccccc2)(c2ccccc2)C1=O)N1CCC(NC(c2ccccc2)c2ccccc2)CC1` [Example 87, 1-{2-[4-(benzhydrylamino)piperidin-1-yl]-2-oxoethyl}-3,3-diphenylpiperidin-2-one], the IC50 was found to be 760 nM.

Consider `N#Cc1ccc(NC(=O)CN2CCC(c3ccc(F)cc3)(c3ccc(F)cc3)C2=O)nc1` [Example 252, 2-[3,3-bis(4-fluorophenyl)-2-oxopyrrolidin-1-yl]-N-(5-cyanopyridin-2-yl)acetamide], for which the 50% inhibitory concentration (IC50) was 2970 nM.

In the case of `O=C(CN1CCC(c2ccc(F)cc2)(c2ccc(F)cc2)C1=O)Nc1ccc(C(F)(F)F)cc1` [Example 218, 2-[3,3-bis(4-fluorophenyl)-2-oxopyrrolidin-1-yl]-N-[4-(trifluoromethyl)phenyl]acetamide], the IC50 came to 6800 nM.

Consider `O=C(CN1CCC(c2ccc(F)cc2)(c2ccc(F)cc2)C1=O)Nc1ccc(Cl)cn1` [Example 225, 2-[3,3-bis(4-fluorophenyl)-2-oxopyrrolidin-1-yl]-N-(5-chloropyridin-2-yl)acetamide], for which the IC50 worked out at 2480 nM.

With `O=C(CN1CCC(c2ccc(F)cc2)(c2ccc(F)cc2)C1=O)Nc1ccc(C(F)(F)F)nc1` [Example 224, 2-[3,3-bis(4-fluorophenyl)-2-oxopyrrolidin-1-yl]-N-[6-(trifluoromethyl)pyridin-3-yl]acetamide], the IC50 stood at 3880 nM.

Consider `O=C1N(Cc2nc(-c3cnccn3)no2)CCC1(c1ccc(F)cc1)c1ccc(F)cc1` [Example 232, 3,3-bis(4-fluorophenyl)-1-[(3-pyrazin-2-yl-1,2,4-oxadiazol-5-yl)methyl]pyrrolidin-2-one], for which the IC50 was determined as 1910 nM.

In the case of `O=C(CN1CCCC(c2ccccc2)(c2ccccc2)C1=O)NC1CCN(Cc2ccc(F)c(C(F)(F)F)c2)CC1` [Example 183, N-{1-[4-fluoro-3-(trifluoromethyl)benzyl]piperidin-4-yl}-2-(2-oxo-3,3-diphenylpiperidin-1-yl)acetamide], the half-maximal inhibitory concentration (IC50) stood at 960 nM.

Consider `O=C(CN1CCCC(c2ccccc2)(c2ccccc2)C1=O)NC1CCOc2ccc(F)cc21` (stereo not drawn) [Example 75, N-(6-fluoro-3,4-dihydro-2H-chromen-4-yl)-2-(2-oxo-3,3-diphenylpiperidin-1-yl)acetamide], for which the IC50 turned out to be 4610 nM.

As to `O=C(CN1CCCC(c2ccccc2)(c2ccccc2)C1=O)N1CCC(C(O)(c2ccccc2)c2ccccc2)CC1` [Example 78, 1-(2-{4-[hydroxy(diphenyl)methyl]piperidin-1-yl}-2-oxoethyl)-3,3-diphenylpiperidin-2-one], the half-maximal inhibitory concentration (IC50) came out at 1740 nM.

For the molecule `Cn1ccc(CNC(=O)CN2CCC(c3ccccc3)(c3ccccc3)C2=O)n1` [Example 4, N-[(1-methyl-1H-pyrazol-3-yl)methyl]-2-(2-oxo-3,3-diphenylpyrrolidin-1-yl)acetamide], the concentration for half-maximal inhibition (IC50) was 29800 nM.

For the molecule `O=C(CN1CCCC(c2ccccc2)C1=O)N1CCN(Cc2ccc(Cl)cc2Cl)CC1` (stereo not drawn) [Example 94, 1-{2-[4-(2,4-dichlorobenzyl)piperazin-1-yl]-2-oxoethyl}-3-phenylpiperidin-2-one], the IC50 was 2200 nM.

For the molecule `COc1ccc(C2(c3ccc(OC)cc3)CCCN(CCN3CCN(Cc4cc(OC)cc(OC)c4)CC3)C2=O)cc1` [Example 132, 1-{2-[4-(3,5-dimethoxybenzyl)piperazin-1-yl]ethyl}-3,3-bis(4-methoxyphenyl)piperidin-2-one], the IC50 turned out to be 2300 nM.

On to `O=C(CN1CCC(c2ccc(F)cc2)(c2ccc(F)cc2)C1=O)N1CCC(c2ccccc2)(c2ccccc2)C1` [Example 61, 1-[2-(3,3-diphenylpyrrolidin-1-yl)-2-oxoethyl]-3,3-bis(4-fluorophenyl)pyrrolidin-2-one], for which the IC50 amounted to 1310 nM.

Turning to `CC1(NC(=O)CN2CCC(c3ccccc3)(c3ccccc3)C2=O)CCN(Cc2ccccc2)C1` (stereo not drawn) [Example 40, N-(1-benzyl-3-methylpyrrolidin-3-yl)-2-(2-oxo-3,3-diphenylpyrrolidin-1-yl)acetamide], the IC50 is 2110 nM.

Turning to `O=C1N(Cc2nc(-c3ccc(C(F)(F)F)cc3)no2)CCCC1(c1ccc(F)cc1)c1ccc(F)cc1` [Example 191, 3,3-bis(4-fluorophenyl)-1-({3-[4-(trifluoromethyl)phenyl]-1,2,4-oxadiazol-5-yl}methyl)piperidin-2-one], the IC50 worked out at 6870 nM.

For `COc1cc(OC)cc(OCCCN(C)CCN2CCC(c3ccc(F)cc3)(c3ccc(F)cc3)C2=O)c1` [Example 105, 1-{2-[[3-(3,5-dimethoxyphenoxy)propyl](methyl)amino]ethyl}-3,3-bis(4-fluorophenyl)pyrrolidin-2-one], the half-inhibitory concentration (IC50) is 1650 nM.

Turning to `O=C(CN1CCC(c2ccc(F)cc2)(c2ccc(F)cc2)C1=O)N1CCC(C(O)(c2ccc(F)cc2)c2ccc(F)cc2)CC1` [Example 271, 1-(2-{4-[bis(4-fluorophenyl)(hydroxy)methyl]piperidin-1-yl}-2-oxoethyl)-3,3-bis(4-fluorophenyl)pyrrolidin-2-one], the IC50 was 2570 nM.

For `O=C(CCCN1CCC(c2ccccc2)(c2ccccc2)C1=O)N1Cc2ccc(C(F)(F)F)cc2C1` [Example 223, 1-{4-oxo-4-[5-(trifluoromethyl)-1,3-dihydro-2H-isoindol-2-yl]butyl}-3,3-diphenylpyrrolidin-2-one], the concentration for half-maximal inhibition (IC50) was found to be 2040 nM.

For the molecule `O=C(CN1CCC(c2ccccc2)(c2ccccc2)C1=O)N1CCC(c2ccc(F)cc2)(c2ccc(F)cc2)C1` [Example 203, 1-{2-[3,3-bis(4-fluorophenyl)pyrrolidin-1-yl]-2-oxoethyl}-3,3-diphenylpyrrolidin-2-one], the IC50 stood at 2160 nM.

As for `O=C(CN1CCC(c2ccccc2)(c2ccccc2)C1=O)NCc1ncco1` [Example 168, N-(1,3-oxazol-2-ylmethyl)-2-(2-oxo-3,3-diphenylpyrrolidin-1-yl)acetamide], the half-maximal inhibitory concentration (IC50) was greater than 30000 nM.

As for `O=C1C(c2ccc(F)cc2)CCN1Cc1nc(-c2ccc(C(F)(F)F)cc2)no1` (stereo not drawn) [Example 189, 3-(4-fluorophenyl)-1-({3-[4-(trifluoromethyl)phenyl]-1,2,4-oxadiazol-5-yl}methyl)pyrrolidin-2-one], the IC50 was 5820 nM.

`O=C(CN1CCCC(c2ccccc2)(c2ccccc2)C1=O)NC1CCN(Cc2cccc(C(F)(F)F)c2)CC1` [Example 200, 2-(2-oxo-3,3-diphenylpiperidin-1-yl)-N-{1-[3-(trifluoromethyl)benzyl]piperidin-4-yl}acetamide]: the concentration for half-maximal inhibition (IC50) stood at 1010 nM.

With `O=C(CN1CCCC(c2ccccc2)(c2ccccc2)C1=O)N1CCCC1c1ccc(F)cc1` (stereo not drawn) [Example 73, 1-{2-[2-(4-fluorophenyl)pyrrolidin-1-yl]-2-oxoethyl}-3,3-diphenylpiperidin-2-one], the half-inhibitory concentration (IC50) was 3460 nM.

Take `O=C1N(Cc2nc(-c3ccc(C(F)(F)F)cc3)no2)CCC1(c1ccccc1)c1ccccc1` [Example 62, 3,3-diphenyl-1-({3-[4-(trifluoromethyl)phenyl]-1,2,4-oxadiazol-5-yl}methyl)pyrrolidin-2-one]: the concentration for half-maximal inhibition (IC50) is 8710 nM.

On to `O=C(CN1CCC(c2ccc(F)cc2)C1=O)N1CCc2ccc(Cl)cc2C1` (stereo not drawn) [Example 256, 1-[2-(7-chloro-3,4-dihydroisoquinolin-2(1H)-yl)-2-oxoethyl]-3-(4-fluorophenyl)pyrrolidin-2-one], for which the IC50 came to 7510 nM.

Consider `O=C(CN1CCCC(c2ccccc2)(c2ccccc2)C1=O)N1CCC(=NOCc2ccccc2)CC1` [Example 163, 1-(2-{4-[(benzyloxy)imino]piperidin-1-yl}-2-oxoethyl)-3,3-diphenylpiperidin-2-one], for which the half-inhibitory concentration (IC50) stood at 3790 nM.

Take `O=C1N(Cc2nc(-c3ccc(O)cc3)no2)CCCC1(c1ccccc1)c1ccccc1` [Example 206, 1-{[3-(4-hydroxyphenyl)-1,2,4-oxadiazol-5-yl]methyl}-3,3-diphenylpiperidin-2-one]: the half-maximal inhibitory concentration (IC50) is 4890 nM.

As for `O=C(CN1CCCC(c2ccccc2)(c2ccccc2)C1=O)N1CCCCC1c1ccc(F)cc1` (stereo not drawn) [Example 74, 1-{2-[2-(4-fluorophenyl)piperidin-1-yl]-2-oxoethyl}-3,3-diphenylpiperidin-2-one], the concentration for half-maximal inhibition (IC50) was 2680 nM.

Consider `O=C1N(Cc2nc(-c3ccc(OC(F)(F)F)cc3)no2)CCCC1(c1ccccc1)c1ccccc1` [Example 199, 3,3-diphenyl-1-({3-[4-(trifluoromethoxy)phenyl]-1,2,4-oxadiazol-5-yl}methyl)piperidin-2-one], for which the IC50 was found to be 5980 nM.

As for `O=C(CN1CCCC(c2ccccc2)(c2ccccc2)C1=O)N1CCN(Cc2cccc(Cl)c2)CC1` [Example 81, 1-{2-[4-(3-chlorobenzyl)piperazin-1-yl]-2-oxoethyl}-3,3-diphenylpiperidin-2-one], the half-inhibitory concentration (IC50) is 1320 nM.

Take “N-(1-benzhydryl-3-methylpyrrolidin-3-yl)-2-(2-oxo-3,3-diphenylpiperidin-1-yl)acetamide [Example 86]”: the IC50 is 2200 nM.

Consider `O=C(CN1CCC(c2ccccc2)(c2ccccc2)C1=O)NCc1ccc(C(F)(F)F)cc1` [Example 8, 2-(2-oxo-3,3-diphenylpyrrolidin-1-yl)-N-[4-(trifluoromethyl)benzyl]acetamide], for which the concentration for half-maximal inhibition (IC50) is 1490 nM.

Values taken from patent publication US8044069B2, “Compounds as calcium channel blockers” (Abbott Laboratories, priority 2008, dated 2011).
